Read-outs that look alike come from different tables or passages of the source. Each block holds one compound with its values, some of them ahead of it.
Experiments:
[1] = target: CDK1-CYCLIN B (Homo sapiens, UniProt P06493); test: CDK protein kinase inhibition by ADP-Glo assay, CDK1-CYCLIN B; format: biochemical; details: for IC50: read-out: CDK1-CYCLINB, IC50; for CDK2 Fold selectivity, CDK1: CDK2 versus CDK1
Procedure, shortened: (§1)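 Enzyme reactions contain 1000 μM ATP and 5 mM MgCl2 in HEPES pH 7.5 with BSA, Triton X-100, DTT, orthovanadate and beta-glycerophosphate. They proceed at 22° C before ADP-Glo luminescent detection of ADP produced.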

[2] = tested on: CCNE1-normal SKOV3 cells; test: Cell growth inhibition of CCNE1-normal SKOV3 cells (CellTiter-Glo); format: cell-based; details: Homo sapiens, SK-OV-3, 144 h, 6 days
Procedure, shortened: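 Growth was measured by CellTiter-Glo luminescence after 6 days' compound exposure at 37 °C. Cells were plated one day before dosing at 1000 per well in medium with 10% FBS, and compounds were diluted from DMSO stocks.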

[3] = target: CDK6-CYCLIN D3 (Homo sapiens, UniProt Q00534); test: CDK protein kinase inhibition by ADP-Glo assay, CDK6-CYCLIN D3; format: biochemical; details: for IC50: read-out: CDK6-CYCLIND3, IC50; for CDK2 Fold selectivity, CDK6: CDK2 versus CDK6
Procedure, shortened: as §1

[4] = target: CDK4-CYCLIN D1 (Homo sapiens, UniProt P11802); test: CDK protein kinase inhibition by ADP-Glo assay, CDK4-CYCLIN D1; format: biochemical; details: for IC50: read-out: CDK4-CYCLIND1, IC50; for CDK2 Fold selectivity, CDK4: CDK2 versus CDK4
Procedure, shortened: as §1

[5] = tested on: CCNE1-amplified OVCAR3 cells; test: Cell growth inhibition of CCNE1-amplified OVCAR3 cells (CellTiter-Glo); format: cell-based; details: Homo sapiens, OVCAR-3, 144 h, 6 days
Procedure, shortened: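 Growth read-out was CellTiter-Glo luminescence, taken after 10 min at room temperature at the end of a 6-day compound exposure at 37 °C. Compounds were diluted from DMSO stocks across various concentrations.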

[6] = tested on: Phospho-Rb (Ser807/811) in OVCAR3 cells; test: Phospho-Rb expression inhibition in OVCAR3 cells quantified by In Cell Western; format: cell-based; details: Homo sapiens, OVCAR-3, 24 hours, read-out: OVCAR-3 pRb IC50
Procedure, shortened: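 In-cell western: after 24 h compound exposure at 37° C, fixed OVCAR3 cells co-stained for pRb Ser807/811 (800 nm channel) and total Rb (680 nm channel), imaged by LI-COR Odyssey.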

[7] = target: CDK9-CYCLIN T1 (Homo sapiens, UniProt P50750); test: CDK protein kinase inhibition by ADP-Glo assay, CDK9-CYCLIN T1; format: biochemical; details: for IC50: read-out: CDK9-CYCLINT1, IC50; for CDK2 Fold selectivity, CDK9: CDK2 versus CDK9
Procedure, shortened: as §1

[8] = target: CDK2-CYCLIN E1 (Homo sapiens, UniProt P24941); test: CDK protein kinase inhibition by ADP-Glo assay, CDK2-CYCLIN E1; format: biochemical; details: read-out: CDK2-CYCLINE, IC50
Procedure, shortened: as §1

[9] = Table 35, recombinant CDK kinase

Chain of CDK6-CYCLIN D3 (Q00534 whole entry): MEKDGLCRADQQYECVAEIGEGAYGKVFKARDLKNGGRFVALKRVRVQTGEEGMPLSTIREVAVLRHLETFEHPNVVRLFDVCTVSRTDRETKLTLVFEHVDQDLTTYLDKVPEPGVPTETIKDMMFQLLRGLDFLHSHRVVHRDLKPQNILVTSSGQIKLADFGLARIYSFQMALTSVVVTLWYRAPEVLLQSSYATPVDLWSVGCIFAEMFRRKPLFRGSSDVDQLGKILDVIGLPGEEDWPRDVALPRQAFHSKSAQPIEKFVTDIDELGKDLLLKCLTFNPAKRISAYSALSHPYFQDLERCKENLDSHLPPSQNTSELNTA
Chain of CDK6-CYCLIN D3 (P30281 whole entry partner): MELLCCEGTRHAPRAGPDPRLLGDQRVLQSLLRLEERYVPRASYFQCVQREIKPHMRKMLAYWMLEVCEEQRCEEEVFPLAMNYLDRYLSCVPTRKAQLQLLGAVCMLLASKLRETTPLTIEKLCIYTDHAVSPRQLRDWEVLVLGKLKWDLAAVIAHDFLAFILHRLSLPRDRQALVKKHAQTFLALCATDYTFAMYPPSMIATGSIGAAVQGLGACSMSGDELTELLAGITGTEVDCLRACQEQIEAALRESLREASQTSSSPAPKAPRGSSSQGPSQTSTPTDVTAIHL
Chain of CDK4-CYCLIN D1 (P11802 whole entry): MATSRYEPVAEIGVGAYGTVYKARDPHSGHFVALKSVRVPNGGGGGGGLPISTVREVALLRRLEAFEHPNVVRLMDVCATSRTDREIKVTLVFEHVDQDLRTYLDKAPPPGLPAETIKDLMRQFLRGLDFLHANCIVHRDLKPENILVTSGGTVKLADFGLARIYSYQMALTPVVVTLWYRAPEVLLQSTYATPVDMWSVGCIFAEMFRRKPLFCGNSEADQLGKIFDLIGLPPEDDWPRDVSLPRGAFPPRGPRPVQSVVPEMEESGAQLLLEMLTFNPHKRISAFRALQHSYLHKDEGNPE
Chain of CDK4-CYCLIN D1 (P24385 whole entry partner): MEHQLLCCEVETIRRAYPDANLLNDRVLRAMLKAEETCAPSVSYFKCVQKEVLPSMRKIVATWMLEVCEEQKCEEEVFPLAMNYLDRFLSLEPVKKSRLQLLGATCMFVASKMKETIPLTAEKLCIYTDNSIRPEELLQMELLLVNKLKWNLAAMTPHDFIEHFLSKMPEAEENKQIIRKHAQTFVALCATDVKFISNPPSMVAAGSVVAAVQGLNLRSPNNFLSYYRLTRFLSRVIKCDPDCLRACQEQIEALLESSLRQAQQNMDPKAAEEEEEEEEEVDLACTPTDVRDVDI
Chain of CDK9-CYCLIN T1 (P50750 whole entry): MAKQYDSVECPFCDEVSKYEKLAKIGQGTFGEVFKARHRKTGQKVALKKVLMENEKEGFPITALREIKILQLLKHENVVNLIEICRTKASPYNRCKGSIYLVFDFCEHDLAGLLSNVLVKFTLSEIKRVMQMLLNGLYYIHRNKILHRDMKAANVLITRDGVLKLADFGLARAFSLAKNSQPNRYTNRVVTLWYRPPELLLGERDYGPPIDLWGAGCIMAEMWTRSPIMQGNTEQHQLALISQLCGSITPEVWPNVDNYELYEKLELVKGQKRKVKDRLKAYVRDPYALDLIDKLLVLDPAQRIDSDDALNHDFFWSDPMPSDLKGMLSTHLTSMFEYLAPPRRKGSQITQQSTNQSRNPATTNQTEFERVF
Chain of CDK9-CYCLIN T1 (O60563 whole entry partner): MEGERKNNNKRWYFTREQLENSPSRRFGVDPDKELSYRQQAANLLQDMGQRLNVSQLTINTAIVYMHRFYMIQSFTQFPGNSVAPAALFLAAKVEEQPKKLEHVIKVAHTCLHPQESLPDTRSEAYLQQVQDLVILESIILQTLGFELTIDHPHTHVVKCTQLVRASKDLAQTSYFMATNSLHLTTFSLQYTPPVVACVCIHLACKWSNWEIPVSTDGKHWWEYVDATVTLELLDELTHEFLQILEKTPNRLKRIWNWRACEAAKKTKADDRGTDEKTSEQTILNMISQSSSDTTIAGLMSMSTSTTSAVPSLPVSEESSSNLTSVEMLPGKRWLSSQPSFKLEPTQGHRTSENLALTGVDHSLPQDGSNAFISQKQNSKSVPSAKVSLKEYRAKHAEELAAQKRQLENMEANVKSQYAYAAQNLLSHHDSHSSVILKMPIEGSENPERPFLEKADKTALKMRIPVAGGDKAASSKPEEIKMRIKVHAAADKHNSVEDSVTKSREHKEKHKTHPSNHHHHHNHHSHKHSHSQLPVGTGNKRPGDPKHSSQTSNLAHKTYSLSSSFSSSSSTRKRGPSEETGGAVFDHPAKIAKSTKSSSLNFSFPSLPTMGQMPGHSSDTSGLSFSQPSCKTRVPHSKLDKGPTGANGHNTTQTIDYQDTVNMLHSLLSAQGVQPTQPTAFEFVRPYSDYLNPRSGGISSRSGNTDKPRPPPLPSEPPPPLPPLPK
Chain of CDK1-CYCLIN B (P06493 whole entry): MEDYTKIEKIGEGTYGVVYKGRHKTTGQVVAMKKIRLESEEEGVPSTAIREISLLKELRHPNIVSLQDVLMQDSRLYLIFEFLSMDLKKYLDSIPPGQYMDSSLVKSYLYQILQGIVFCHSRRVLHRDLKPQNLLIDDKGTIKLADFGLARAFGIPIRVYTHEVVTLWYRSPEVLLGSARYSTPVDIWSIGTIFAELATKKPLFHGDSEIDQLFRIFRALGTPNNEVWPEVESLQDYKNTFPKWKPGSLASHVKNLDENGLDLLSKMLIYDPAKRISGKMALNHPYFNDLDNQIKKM
Chain of CDK1-CYCLIN B (P14635 whole entry partner): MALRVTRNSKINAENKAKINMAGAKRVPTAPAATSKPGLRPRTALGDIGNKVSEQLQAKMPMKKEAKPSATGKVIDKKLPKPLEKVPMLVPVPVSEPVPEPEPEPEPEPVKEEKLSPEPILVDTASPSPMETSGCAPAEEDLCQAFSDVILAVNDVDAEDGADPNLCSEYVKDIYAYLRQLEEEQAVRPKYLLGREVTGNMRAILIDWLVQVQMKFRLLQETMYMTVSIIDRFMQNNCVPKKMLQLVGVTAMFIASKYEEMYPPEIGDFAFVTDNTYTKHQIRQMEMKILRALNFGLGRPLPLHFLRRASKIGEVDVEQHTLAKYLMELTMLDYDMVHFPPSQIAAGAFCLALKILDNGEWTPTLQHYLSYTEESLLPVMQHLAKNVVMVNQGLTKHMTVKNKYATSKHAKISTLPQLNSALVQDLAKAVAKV

IC50 ([1]; ADP-Glo, 1000 μM ATP, Table 15): ≤ 10 nM
CDK2 Fold selectivity, CDK1 ([1]; Table 16): E (E, <20)
IC50 ([3]; ADP-Glo, 1000 μM ATP, Table 15): 10 to 50 nM
CDK2 Fold selectivity, CDK6 ([3]; Table 16): E (E, <20)
IC50 ([4]; ADP-Glo, 1000 μM ATP, Table 15): 10 to 50 nM
CDK2 Fold selectivity, CDK4 ([4]; Table 16): E (E, <20)
IC50 [5]: ≤ 2 nM
IC50 [6]: ≤ 2 nM
IC50 ([7]; ADP-Glo, 1000 μM ATP, Table 15): ≤ 10 nM
CDK2 Fold selectivity, CDK9 ([7]; Table 16): E (E, <20)
IC50 ([8]; ADP-Glo, 1000 μM ATP, Table 15): ≤ 10 nM
Compound: O=C1NC23CC(C/C=C/c4cncc(c4)Nc4cc(n[nH]4)[C@H]4CC[C@H](C4)O1)(C2)C3 [Compound 106, (1^1S,1^3R,2^4Z,5E)-2^1H-11-oxa-3,9-diaza-4(3,5)-pyridina-2(3,5)-pyrazola-8(1,3)-bicyclo[1.1.1]pentana-1(1,3)-cyclopentanacycloundecaphan-5-en-10-one]
IC50 [2]: 10 to 50 nM

IC50 ([1]; ADP-Glo, 1000 μM ATP, Table 17): ≤ 10 nM
CDK2 Fold selectivity, CDK1 ([1]; Table 18): E (E, <20)
IC50 ([3]; ADP-Glo, 1000 μM ATP, Table 17): 10 to 50 nM
CDK2 Fold selectivity, CDK6 ([3]; Table 18): E (E, <20)
IC50 ([4]; ADP-Glo, 1000 μM ATP, Table 17): 10 to 50 nM
CDK2 Fold selectivity, CDK4 ([4]; Table 18): E (E, <20)
IC50 [5]: ≤ 2 nM
IC50 [6]: ≤ 2 nM
IC50 ([7]; ADP-Glo, 1000 μM ATP, Table 17): ≤ 10 nM
CDK2 Fold selectivity, CDK9 ([7]; Table 18): E (E, <20)
IC50 ([8]; ADP-Glo, 1000 μM ATP, Table 17): ≤ 10 nM
Compound: O=C1NC23CC(C/C=C/c4cc(ccn4)Nc4cc(n[nH]4)[C@H]4CC[C@H](C4)O1)(C2)C3 [Compound 107, (11S,13R,24Z,5E)-21H-11-oxa-3,9-diaza-4(4,2)-pyridina-2(3,5)-pyrazola-8(1,3)-bicyclo[1.1.1]pentana-1(1,3)-cyclopentanacycloundecaphan-5-en-10-one]
IC50 [2]: 10 to 50 nM

IC50 ([1]; ADP-Glo, 1000 μM ATP, Table 11): 10 to 50 nM
CDK2 Fold selectivity, CDK1 ([1]; Table 12): B (B, >100 and ≤500)
IC50 [1, 9]: 10 to 50 nM
CDK2 Fold selectivity against CDK1 ([1]; Table 36, fold selectivity for CDK2 over CDK1, recombinant CDK kinases): E (E, <20)
IC50 ([3]; ADP-Glo, 1000 μM ATP, Table 11): 100 to 500 nM
CDK2 Fold selectivity, CDK6 ([3]; Table 12): A (A, ≥500)
IC50 [3, 9]: 50 to 100 nM
CDK2 Fold selectivity against CDK6 ([3]; Table 36, fold selectivity for CDK2 over CDK6, recombinant CDK kinases): D (D, >20 and ≤50)
IC50 ([4]; ADP-Glo, 1000 μM ATP, Table 11): 100 to 500 nM
CDK2 Fold selectivity, CDK4 ([4]; Table 12): B (B, >100 and ≤500)
IC50 [4, 9]: 10 to 50 nM
CDK2 Fold selectivity against CDK4 ([4]; Table 36, fold selectivity for CDK2 over CDK4, recombinant CDK kinases): E (E, <20)
IC50 [5]: 2 to 10 nM
IC50 [6]: 2 to 10 nM
IC50 ([7]; ADP-Glo, 1000 μM ATP, Table 11): 100 to 500 nM
CDK2 Fold selectivity, CDK9 ([7]; Table 12): A (A, ≥500)
IC50 [7, 9]: 50 to 100 nM
CDK2 Fold selectivity against CDK9 ([7]; Table 36, fold selectivity for CDK2 over CDK9, recombinant CDK kinases): D (D, >20 and ≤50)
IC50 ([8]; ADP-Glo, 1000 μM ATP, Table 11): ≤ 10 nM
IC50 [8, 9]: ≤ 10 nM
Compound: O=C1N[C@H]2C[C@H](COc3cc(ccn3)Nc3cc(n[nH]3)[C@H]3CC[C@H](C3)O1)C2 [Compound 108, (1^1S,1^3R,7^1R,7^3S,Z)-2^1H-5,10-dioxa-3,8-diaza-4(4,2)-pyridina-2(3,5)-pyrazola-1(1,3)-cyclopentana-7(1,3)-cyclobutanacyclodecaphan-9-one]
IC50 [2]: 250 to 1250 nM
